# Experimental data reported in patent US8952024B2, “Herbicidal pyrimidone derivatives” (E I du Pont de Nemours and Company, priority 2009, dated 2015).
# Key:
# Format in all cases: in vivo
# [1] = system: pigweed (Amaranthus retroflexus); assay: Test A pre-/postemergence plant response
# Method in brief: (§1)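 Each species was treated preemergence via directed soil spray and postemergence at the one- to two-leaf stage, with compounds formulated in a non-phytotoxic solvent plus surfactant. Visual injury relative to untreated controls was rated after about ten days on a 0–100 scale.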
# [2] = system: barnyardgrass (Echinochloa crus-galli); assay: Test A pre-/postemergence plant response
# Method in brief: as §1
# [3] = system: goosegrass (Eleusine indica); assay: Test B pre-/postemergence plant response
# Method in brief: (§2)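 Seeds were sown in loam soil/sand blend and treated preemergence with compound in non-phytotoxic solvent mixture containing surfactant; postemergence sprays, same formulation, went onto plants 2 to 18 cm (1- to 4-leaf stage) in peat-based planting medium. Greenhouse 13 to 15 days, then visual rating versus untreated controls, 0 (no effect) to 100 (complete control).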
# [4] = system: downy bromegrass (Bromus tectorum); assay: Test B pre-/postemergence plant response
# Method in brief: as §2
# [5] = system: large crabgrass (Digitaria sanguinalis); assay: Test B pre-/postemergence plant response
# Method in brief: as §2
# [6] = system: blackgrass (Alopecurus myosuroides); assay: Test B pre-/postemergence plant response
# Method in brief: as §2
# [7] = system: morningglory (Ipomoea coccinea); assay: Test B pre-/postemergence plant response
# Method in brief: as §2
# [8] = system: Italian ryegrass (Lolium multiflorum); assay: Test B pre-/postemergence plant response
# Method in brief: as §2
# [9] = system: woolly cupgrass (Eriochloa villosa); assay: Test B pre-/postemergence plant response
# Method in brief: as §2
# [10] = system: yellow nutsedge (Cyperus esculentus); assay: Test B pre-/postemergence plant response
# Method in brief: as §2
# [11] = system: wheat (Triticum aestivum); assay: Test B pre-/postemergence plant response
# Method in brief: as §2
# [12] = system: velvetleaf (Abutilon theophrasti); assay: Test B pre-/postemergence plant response
# Method in brief: as §2
# [13] = system: Surinam grass (Brachiaria decumbens); assay: Test B pre-/postemergence plant response
# Method in brief: as §2
# [14] = Postemergence, 125 g ai/ha, 0 to 100 scale where 0 is no effect and 100 is complete control
# [15] = Postemergence, 500 g ai/ha, 0 to 100 scale, 0 = no effect, 100 = complete control, approx. ten days
# [16] = Preemergence, 125 g ai/ha, 0 to 100 scale, 0 = no effect, 100 = complete control
# [17] = Preemergence, 500 g ai/ha, visual injury, 0 to 100 scale (0 no effect, 100 complete control), approx. ten days
# [18] = 31 g ai/ha, postemergence, scale 0 to 100, 0 is no effect, 100 is complete control
# [19] = 62 g ai/ha, postemergence, 0 is no effect, 100 is complete control, 13 to 15 days
# [20] = Postemergence, 125 g ai/ha, scale 0 to 100 (0 no effect, 100 complete control)
# [21] = Postemergence, 250 g ai/ha, scale 0 to 100 (0 no effect, 100 complete control)
# [22] = Postemergence, 125 g ai/ha, visual injury, 0 to 100 scale (0 no effect, 100 complete control), approx. ten days
# [23] = 250 g ai/ha, Preemergence, 0 to 100 scale
# [24] = Postemergence, 62 g ai/ha, scale 0 (no effect) to 100 (complete control), 13 to 15 days
# [25] = Postemergence, 125 g ai/ha, visual rating after 13 to 15 days, scale 0 (no effect) to 100 (complete control)
# [26] = Preemergence, 31 g ai/ha, scale 0 to 100 (0 no effect, 100 complete control)
# [27] = Preemergence, 125 g ai/ha, 0 to 100 scale
# [28] = Preemergence, 62 g ai/ha, scale 0 to 100, 0 no effect, 100 complete control
structure (smiles),measurement,setting,value
CCCn1c(-c2cccc(OC)c2)ncc(C(=O)C2=C(O)CCCC2=O)c1=O [Compound 100],"Plant response rating, Pigweed",[1]; [14],90
same,"Plant response rating, Pigweed",[1]; [15],100
same,"Plant response rating, Pigweed",[1]; [16],80
same,"Plant response rating, Pigweed",[1]; [17],100
same,"Plant response rating, Barnyardgrass",[2]; [14],80
same,"Plant response rating, Barnyardgrass",[2]; [15],90
same,"Plant response rating, Barnyardgrass",[2]; [16],40
same,"Plant response rating, Barnyardgrass",[2]; [17],90
same,"Plant response rating, Goosegrass",[3]; [18],70
same,Goosegrass plant response rating (0 to 100 scale),[3]; [19],70
same,"Plant response rating, Goosegrass",[3]; [20],75
same,"Plant response rating, Goosegrass",[3]; [21],75
same,"Plant response rating, Bromegrass, Downy",[4]; [18],5
same,"Bromegrass, Downy plant response rating (0 to 100 scale)",[4]; [19],10
same,"Plant response rating, Bromegrass, Downy",[4]; [20],15
same,"Plant response rating, Bromegrass, Downy",[4]; [21],35
same,"Plant response rating, Crabgrass, Large",[5]; [18],55
same,"Crabgrass, Large plant response rating (0 to 100 scale)",[5]; [19],60
same,"Plant response rating, Crabgrass, Large",[5]; [20],75
same,"Plant response rating, Crabgrass, Large",[5]; [21],80
same,"Plant response rating, Blackgrass",[6]; [18],0
same,Blackgrass plant response rating (0 to 100 scale),[6]; [19],5
same,"Plant response rating, Blackgrass",[6]; [20],10
same,"Plant response rating, Blackgrass",[6]; [21],40
same,"Plant response rating, Morningglory",[7]; [18],60
same,Morningglory plant response rating (0 to 100 scale),[7]; [19],100
same,"Plant response rating, Morningglory",[7]; [20],100
same,"Plant response rating, Morningglory",[7]; [21],100
same,"Ryegrass, Italian plant response rating (0 to 100 scale)",[8]; [19],5
same,"Plant response rating, Ryegrass, Italian",[8]; [20],10
same,"Plant response rating, Ryegrass, Italian",[8]; [21],50
same,"Cupgrass, Woolly plant response rating (0 to 100 scale)",[9]; [19],65
same,"Plant response rating, Cupgrass, Woolly",[9]; [20],70
same,"Plant response rating, Cupgrass, Woolly",[9]; [21],75
same,"Nutsedge, Yellow plant response rating (0 to 100 scale)",[10]; [19],5
same,"Plant response rating, Nutsedge, Yellow",[10]; [20],15
same,"Plant response rating, Nutsedge, Yellow",[10]; [21],40
same,Wheat plant response rating (0 to 100 scale),[11]; [19],5
same,"Plant response rating, Wheat",[11]; [20],15
same,Velvetleaf plant response rating (0 to 100 scale),[12]; [19],70
same,"Plant response rating, Velvetleaf",[12]; [20],70
same,"Plant response rating, Velvetleaf",[12]; [21],85
same,Surinam Grass plant response rating (0 to 100 scale),[13]; [19],65
same,"Plant response rating, Surinam Grass",[13]; [20],65
same,"Plant response rating, Surinam Grass",[13]; [21],75
Cc1ccc(F)c(-n2c(-c3ccccc3)ncc(C(=O)C3=C(O)CCCC3=O)c2=O)c1 [Compound 51],Pigweed plant response rating,[1]; [22],100
same,"Plant response rating, Pigweed",[1]; [15],100
same,"Plant response rating, Pigweed",[1]; [16],90
same,"Plant response rating, Pigweed",[1]; [17],100
same,Barnyardgrass plant response rating,[2]; [22],90
same,"Plant response rating, Barnyardgrass",[2]; [15],90
same,"Plant response rating, Barnyardgrass",[2]; [16],10
same,"Plant response rating, Barnyardgrass",[2]; [17],90
same,"Plant response rating, Goosegrass",[3]; [18],75
same,"Plant response rating, Goosegrass",[3]; [23],100
same,"Plant response rating, Goosegrass",[3]; [24],80
same,"Plant response rating, Goosegrass",[3]; [25],85
same,"Plant response rating, Goosegrass",[3]; [21],85
same,"Plant response rating, Goosegrass",[3]; [26],98
same,Goosegrass plant response rating,[3]; [27],100
same,"Plant response rating, Bromegrass, Downy",[4]; [18],50
same,"Plant response rating, Bromegrass, Downy",[4]; [23],40
same,"Plant response rating, Bromegrass, Downy",[4]; [24],50
same,"Plant response rating, Bromegrass, Downy",[4]; [25],55
same,"Plant response rating, Bromegrass, Downy",[4]; [21],60
same,"Plant response rating, Bromegrass, Downy",[4]; [26],0
same,"Plant response rating, Bromegrass, Downy",[4]; [28],0
same,"Bromegrass, Downy plant response rating",[4]; [27],5
same,"Plant response rating, Crabgrass, Large",[5]; [18],80
same,"Plant response rating, Crabgrass, Large",[5]; [23],100
same,"Plant response rating, Crabgrass, Large",[5]; [24],85
same,"Plant response rating, Crabgrass, Large",[5]; [25],85
same,"Plant response rating, Crabgrass, Large",[5]; [21],90
same,"Plant response rating, Crabgrass, Large",[5]; [26],75
same,"Plant response rating, Crabgrass, Large",[5]; [28],98
same,"Crabgrass, Large plant response rating",[5]; [27],100
same,"Plant response rating, Blackgrass",[6]; [18],0
same,"Plant response rating, Blackgrass",[6]; [23],20
same,"Plant response rating, Blackgrass",[6]; [24],30
same,"Plant response rating, Blackgrass",[6]; [25],50
same,"Plant response rating, Blackgrass",[6]; [21],55
same,"Plant response rating, Blackgrass",[6]; [26],0
same,"Plant response rating, Blackgrass",[6]; [28],0
same,Blackgrass plant response rating,[6]; [27],10
same,"Plant response rating, Morningglory",[7]; [18],75
same,"Plant response rating, Morningglory",[7]; [23],70
same,"Plant response rating, Morningglory",[7]; [24],80
same,"Plant response rating, Morningglory",[7]; [25],90
same,"Plant response rating, Morningglory",[7]; [21],100
same,"Plant response rating, Morningglory",[7]; [26],0
same,"Plant response rating, Morningglory",[7]; [28],20
same,Morningglory plant response rating,[7]; [27],20
same,"Plant response rating, Ryegrass, Italian",[8]; [18],0
same,"Plant response rating, Ryegrass, Italian",[8]; [23],5
same,"Plant response rating, Ryegrass, Italian",[8]; [24],0
same,"Plant response rating, Ryegrass, Italian",[8]; [25],10
same,"Plant response rating, Ryegrass, Italian",[8]; [21],30
same,"Plant response rating, Ryegrass, Italian",[8]; [26],0
same,"Ryegrass, Italian plant response rating",[8]; [27],0
same,"Plant response rating, Cupgrass, Woolly",[9]; [18],75
same,"Plant response rating, Cupgrass, Woolly",[9]; [23],85
same,"Plant response rating, Cupgrass, Woolly",[9]; [24],75
same,"Plant response rating, Cupgrass, Woolly",[9]; [25],80
same,"Plant response rating, Cupgrass, Woolly",[9]; [21],90
same,"Plant response rating, Cupgrass, Woolly",[9]; [26],10
same,"Plant response rating, Cupgrass, Woolly",[9]; [28],35
same,"Cupgrass, Woolly plant response rating",[9]; [27],75
same,"Plant response rating, Nutsedge, Yellow",[10]; [18],60
same,"Plant response rating, Nutsedge, Yellow",[10]; [23],90
same,"Plant response rating, Nutsedge, Yellow",[10]; [24],65
same,"Plant response rating, Nutsedge, Yellow",[10]; [25],75
same,"Plant response rating, Nutsedge, Yellow",[10]; [21],80
same,"Plant response rating, Nutsedge, Yellow",[10]; [26],55
same,"Nutsedge, Yellow plant response rating",[10]; [27],85
same,"Plant response rating, Wheat",[11]; [18],5
same,"Plant response rating, Wheat",[11]; [23],10
same,"Plant response rating, Wheat",[11]; [24],10
same,"Plant response rating, Wheat",[11]; [25],10
same,"Plant response rating, Wheat",[11]; [21],30
same,"Plant response rating, Wheat",[11]; [26],0
same,Wheat plant response rating,[11]; [27],0
same,"Plant response rating, Velvetleaf",[12]; [18],80
same,"Plant response rating, Velvetleaf",[12]; [23],100
same,"Plant response rating, Velvetleaf",[12]; [24],85
same,"Plant response rating, Velvetleaf",[12]; [25],90
same,"Plant response rating, Velvetleaf",[12]; [21],95
same,"Plant response rating, Velvetleaf",[12]; [26],75
same,Velvetleaf plant response rating,[12]; [27],98
same,"Plant response rating, Surinam Grass",[13]; [18],80
same,"Plant response rating, Surinam Grass",[13]; [23],100
same,"Plant response rating, Surinam Grass",[13]; [24],85
same,"Plant response rating, Surinam Grass",[13]; [25],90
same,"Plant response rating, Surinam Grass",[13]; [21],90
same,"Plant response rating, Surinam Grass",[13]; [26],95
same,Surinam Grass plant response rating,[13]; [27],98
